Active and inactive are the calls of the source. The calls are words filed in the database; no cut-off is given here.
Tests used:
H9c2 [1] = assay: Cardioprotective activity against CoCl2-induced cellular hypoxia injury in rat H9c2 cells assessed as increase in hypoxia-reduced ATP production in mitochondria at 5 to 10 uM incubated for 24 hrs by bioluminescence assay; format: functional, cell-based; conditions: dose 5-10 µM
H9c2 [2] = assay: Antioxidant activity against CoCl2-induced cellular hypoxia injury in rat H9c2 cells assessed as decrease in hypoxia-induced LDH release at 10 uM incubated for 24 hrs in presence of GSSG; format: functional, cell-based
H9c2 [3] = assay: Cardioprotective activity against CoCl2-induced cellular hypoxia injury in rat H9c2 cells assessed as reduction in necrosis at 5 to 10 uM incubated for 24 hrs by flow cytometry; format: functional, cell-based; conditions: dose 5-10 µM
H9c2 [4] = assay: Antioxidant activity against CoCl2-induced cellular hypoxia injury in rat H9c2 cells assessed as increase in Nrf2 level at 5 to 10 uM incubated for 24 hrs by Western blot analysis; format: functional, cell-based; conditions: dose 5-10 µM
H9c2 [5] = assay: Cardioprotective activity against CoCl2-induced cellular hypoxia injury in rat H9c2 cells assessed as increase in PGC1-alpha level at 5 to 10 uM incubated for 24 hrs by Western blot analysis; format: functional, cell-based; conditions: dose 5-10 µM
[6] = biological target: T1, NAD-dependent protein deacetylase sirtuin-1 (Homo sapiens) (UniProt Q96EB6); assay: Activation of SIRT1 (unknown origin) using RHKK-ac-AMC as substrate incubated for 2 hrs by FDL assay relative to control; conditions: filed as activator
T1 sequence (whole entry): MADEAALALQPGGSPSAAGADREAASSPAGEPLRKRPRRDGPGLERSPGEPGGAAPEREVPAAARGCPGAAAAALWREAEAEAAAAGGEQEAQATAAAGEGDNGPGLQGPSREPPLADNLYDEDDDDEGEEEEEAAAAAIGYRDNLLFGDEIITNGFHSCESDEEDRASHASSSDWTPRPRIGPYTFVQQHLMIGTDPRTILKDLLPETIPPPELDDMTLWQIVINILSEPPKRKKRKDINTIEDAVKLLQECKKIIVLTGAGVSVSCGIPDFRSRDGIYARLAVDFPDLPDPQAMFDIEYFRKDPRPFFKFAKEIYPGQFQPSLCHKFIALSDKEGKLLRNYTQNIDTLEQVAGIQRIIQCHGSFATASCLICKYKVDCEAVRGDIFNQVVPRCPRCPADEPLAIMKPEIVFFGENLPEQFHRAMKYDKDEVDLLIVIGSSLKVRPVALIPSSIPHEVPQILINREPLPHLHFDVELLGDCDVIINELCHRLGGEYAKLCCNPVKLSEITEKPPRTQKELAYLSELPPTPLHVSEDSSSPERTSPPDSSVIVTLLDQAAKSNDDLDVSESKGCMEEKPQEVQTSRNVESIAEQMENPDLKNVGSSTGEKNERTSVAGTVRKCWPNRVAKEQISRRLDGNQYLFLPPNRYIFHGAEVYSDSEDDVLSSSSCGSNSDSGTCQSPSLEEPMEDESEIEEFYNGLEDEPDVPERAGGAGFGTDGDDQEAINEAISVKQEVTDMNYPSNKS

H9c2 [7] = assay: Cardioprotective activity against CoCl2-induced cellular hypoxia injury in rat H9c2 cells assessed as inhibition of ROS-induced cell damage at 5 to 10 uM incubated for 24 hrs by fluorescence based analysis; format: functional; conditions: dose 5-10 µM
Rattus norvegicus [8] = assay: Cardioprotective activity in myocardial ischemia Sprague-Dawley rat model assessed as decrease in myocardial injury administered intragastrically for 7 days consecutively followed by ISO administration daily for 2 days consecutively by H and E/Masson staining based analysis; format: functional, organism-based; conditions: dose 10-30 mg/kg, route ig, time 9.0 day
[9] = biological target: T2, NAD-dependent protein deacetylase sirtuin-1 (Rattus norvegicus) (UniProt A0A0G2JZ79); assay: Activation of SIRT1 in CoCl2-induced cellular hypoxia injury in rat H9c2 cells at 5 to 10 uM incubated for 24 hrs by immunofluorescence based analysis; format: cell-based; conditions: filed as activator, dose 5-10 µM
T2 sequence (whole entry): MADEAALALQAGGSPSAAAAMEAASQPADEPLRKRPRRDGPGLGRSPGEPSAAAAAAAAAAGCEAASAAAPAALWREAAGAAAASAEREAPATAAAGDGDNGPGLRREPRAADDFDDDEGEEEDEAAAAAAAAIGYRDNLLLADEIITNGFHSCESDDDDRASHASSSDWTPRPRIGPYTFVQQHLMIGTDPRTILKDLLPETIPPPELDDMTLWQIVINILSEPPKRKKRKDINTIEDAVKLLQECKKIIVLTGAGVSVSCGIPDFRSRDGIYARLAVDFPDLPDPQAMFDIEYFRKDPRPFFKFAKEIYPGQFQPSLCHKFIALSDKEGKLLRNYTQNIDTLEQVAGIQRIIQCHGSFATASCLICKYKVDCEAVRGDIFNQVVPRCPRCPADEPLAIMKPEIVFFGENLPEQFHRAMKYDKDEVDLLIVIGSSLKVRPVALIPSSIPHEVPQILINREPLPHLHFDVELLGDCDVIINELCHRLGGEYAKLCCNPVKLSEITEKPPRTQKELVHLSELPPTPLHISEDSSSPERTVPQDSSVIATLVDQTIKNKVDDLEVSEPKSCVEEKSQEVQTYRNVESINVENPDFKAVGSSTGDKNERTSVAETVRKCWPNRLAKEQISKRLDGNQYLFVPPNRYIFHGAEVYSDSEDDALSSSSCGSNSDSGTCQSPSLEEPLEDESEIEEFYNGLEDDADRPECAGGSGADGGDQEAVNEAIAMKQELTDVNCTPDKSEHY

H9c2 [10] = assay: Cardioprotective activity against CoCl2-induced cellular hypoxia injury in rat H9c2 cells assessed as mitochondrial membrane potential at 10 uM incubated for 24 hrs by JC-1 staining based analysis (reference value: 48.08 %); format: functional
H9c2 [11] = assay: Upregulation of SIRT1 mRNA level in CoCl2-induced cellular hypoxia injury in rat H9c2 cells at 5 to 10 uM incubated for 24 hrs by qPCR analysis; format: functional, cell-based; conditions: dose 5-10 µM
[12] = biological target: T2, NAD-dependent protein deacetylase sirtuin-1 (Rattus norvegicus); assay: Activation of SIRT1 in CoCl2-induced cellular hypoxia injury in rat H9c2 cells at 5 to 10 uM incubated for 24 hrs by Western blot analysis; format: cell-based; conditions: filed as activator, dose 5-10 µM
H9c2 [13] = assay: Cardioprotective activity against CoCl2-induced cellular hypoxia injury in rat H9c2 cells assessed as reduction in apoptosis at 5 to 10 uM incubated for 24 hrs by flow cytometry; format: functional, cell-based; conditions: dose 5-10 µM
H9c2 [14] = assay: Cardioprotective activity against CoCl2-induced cellular hypoxia injury in rat H9c2 cells assessed as cell viability at 2.5 uM incubated for 24 hrs by CCK-8 assay (reference value: 51.80 +/- 2.58 %); format: functional; conditions: read-out: Activity
Rattus norvegicus [15] = assay: Cardioprotective activity in myocardial ischemia Sprague-Dawley rat model assessed as improvement in cell volume size at 10 to 30 mg/kg, IG treated for 7 days consecutively followed by ISO administration daily for 2 days consecutively by H and E/Masson staining based analysis; format: functional, organism-based; conditions: dose 10-30 mg/kg, time 9.0 day
H9c2 [16] = assay: Cardioprotective activity against CoCl2-induced cellular hypoxia injury in rat H9c2 cells assessed as ROS accumulation at 10 uM incubated for 24 hrs by DCFH-DA probe based analysis (reference value: 28.03 %); format: functional
Rattus norvegicus [17] = assay: Cardioprotective activity against myocardial ischemia Sprague-Dawley rat model assessed as increase in PGC1-alpha level in myocardial tissue at 10 to 30 mg/kg, IG treated for 7 days consecutively followed by ISO administration daily for 2 days consecutively by Western blot analysis; format: functional, organism-based; conditions: dose 10-30 mg/kg, time 9.0 day

## C=CCSSCCC(=O)O[C@H]1CC[C@]2(C)[C@H]3C[C@@H](O)[C@@H]4[C@@H]([C@]5(C)CC[C@@H](C(C)(C)O)O5)CC[C@@]4(C)[C@]3(C)CC[C@H]2C1(C)C
H9c2 [1]
  Activity: Active
H9c2 [2]
  Activity: inactive
H9c2 [3]
  Activity: Active
H9c2 [4]
  Activity: Active
H9c2 [5]
  Activity: Active
[6]
  Activity: 177%
H9c2 [7]
  inhibition: Active
Rattus norvegicus [8]
  Activity: Dose-dependent-effect
[9]
  Activity: Active
H9c2 [10]
  Activity: 92.84%
H9c2 [11]
  Activity: Active
[12]
  Activity: Active
H9c2 [13]
  Activity: Active
H9c2 [14]
  viability at 2.5 µM: 87.8%
Rattus norvegicus [15]
  Activity: Active
H9c2 [16]
  Activity: 4.74%
Rattus norvegicus [17]
  Activity: Active

Reference: ChEMBL document CHEMBL6120941, “Discovery of SIRT1-Activating Hydrogen Sulfide Donating Derivatives for Efficient Resistant of Myocardial Ischemic Injury” (J Med Chem, 2024)
